Experimental data reported in US20150044244A1, “COMBINED FACILITATOR, ANTIGEN AND DNA VACCINE FOR PREVENTING AND TREATING AUTOIMMUNE DISEASES” (BEIJING ADVANCCINE BIOTECHNOLOGY CO. LTD., priority 2011, published 2015).

Tests used:
JAWS II cells = test: Endocytosis inhibitors and CD40low phenotype in JAWS II cells; type: cell-based, mouse; settings: for effect on CD40low phenotype: pretreatment before pOVA323+OVA323
Method: The JAWS II mouse DC line was purchased from the American Type Culture Collection (ATCC, Manassas, Va., USA) and maintained in complete growth medium containing minimum essential medium (MEM) alpha with ribonucleosides, deoxyribonucleosides, 4 mM L-glutamine, and 1 mM sodium pyruvate (Invitrogen Inc., Carlsbad, Calif., USA), and supplemented with 20% fetal bovine serum (ATCC) and 5 ng/ml murine recombinant GM-CSF (R&D Systems, Inc., Minneapolis, Minn., USA). The cells were incubated at 37° C. with 5% CO2 and treated with different antigens (10 μg/ml) such as pVAX, pOVA, OVA, pOVA323 and OVA323 for 24 h. For inhibitor treatment, JAWS II cells were pre-treated with filipin (10 μg/ml), MDC (50 μM) for 30 min at 37° C., respectively, or with amiloride (5 mM) for 10 min at 37° C., and washed with medium, then stimulated with antigens.
DCs take up exogenous antigens via various mechanisms including clathrin-mediated endocytosis, caveolae-mediated endocytosis, and macropinocytosis. To define which pathway(s) were involved in the co-uptake of DNA and protein immunogens, JAWS II cells were pretreated with MDC, a specific inhibitor of clathrin formation, or filipin, an inhibitor of caveolae trafficking, before being treated with pOVA323+OVA323. […] Another inhibitor, amiloride, an inhibitor for macropinocytosis, had no effect on CD40 expression (FIG. 37).

[1] = test system: RAW264.7, DC2.4 and JAWSII; test: Maturation markers and innate cytokines after pcD-S2 with or without amiloride, cell lines; type: cell-based, mouse
Method: With respect to cell culture and inhibitor treatment, RAW264.7 and DC2.4 were cultured in DMEM/10% FCS, and JAWSII was cultured in DMEM/10% FCS with GMCSF (1000 U/ml, Peprotech, USA). Amiloride (Sigma-Aldrich, USA) was prepared as 10 mM solution and was diluted to 1 mM, 100 uM, 10 uM in DMEM medium before treatment. After culture medium was removed, cells were treated with amiloride, MβCD (5 mM, Sigma) or Fillipin (10 μg/ml, sigma) at 37° C. for 1 h. LPS (10 μg/ml, sigma) or 10 μg/ml DNA in DMEM was added at 37° C. for 0.5 h, after wash, culture medium was added and cells were cultured. Peritoneal macrophage was prepared from peritoneal cavity with 10 ml PBS wash, routinely with ˜50-70% F4/80 purity. Spleen dendritic cell was prepared from plate-adhesive cells and purified with Miltenyi DC purification kit (Miltenyi Biotec, Gladbach, Germany). Cells were treated and cultured 3 days for innate response.
Hepatitis B virus DNA vaccine (pcD-S2) encoding for HBsAg, which was conjugated with Cy5, was used to test whether amiloride-facilitated DNA entry into antigen presenting cells could positively affect innate immune responses.

[2] = test system: RAW264.7, JAWSII and DC2.4; test: Cy5-pEGFP plasmid entry and GFP expression in APC cell lines with amiloride; type: cell-based, mouse; settings: vs un-treated cells
[3] = test system: Cy5+ cells in draining lymph nodes; test: Cy5-pEGFP plasmid entry into draining lymph node cells after footpad injection; type: in vivo, C57B/6 mice; settings: 4 hrs after footpad injection
Method: To explore if amiloride would overcome low transfection efficiency in vivo, Cy5-labeled pEFGP plasmid with or without amiloride was injected into hind footpads of C57B/6 mice. After 4 hrs, draining lymph nodes were collected and Cy5+ cells were analyzed by FACS analysis. The inguinal lymph nodes from the un-injected side were also collected as negative controls. […] The other ˜10% was B220+, a B cell marker. […].

HBsAg = settings: vs pcD-S2 alone; dose dependent manner
[4] = test system: CD8 T cells co-cultured with peritoneal macrophages or spleen dendritic cells; test: APC and CD8 T cell co-culture, S208-215 restimulation; type: cell-based, mice; settings: macrophages and DCs co-culture system
Method: With respect to co-cultures, pcD-S2 (10 μg/ml) with or without 100 μM amiloride treat APCs, peritoneal macrophage or spleen dendrtic cell, were cultured for 2 days. At day3, purified CD8 T cell (R&D systems, USA) was added into culture with APC:T ratio of 1:5, 1:2, 1:1. At day 8, cells were collected and restimulated with S208-215 (10 μg/ml). PMA+Ionomycin was added as positive control for restimulation.
During the co-culture, HBsAg-derived peptide S208-215 (ILSPFLPL; H-2 Kb-restricted) was used to re-stimulate. Proportions of responsive T cells were analyzed.

flea allergic dermatitis = test: Prophylactic co-immunization in flea allergic dermatitis model; type: in vivo, C57BL/6 mice; settings: than P66
Text: To see whether the difference in antigenicity influences the induction of CD25^− iTreg cells by these two epitopes, C57BL/6 mice were prophylactically treated with co-immunization using the combination of DNA and protein vaccines targeting each epitope (designated as Co100 or Co66). Seven days after co-immunization, the animals were sensitized with flea saliva extracts, followed by a delayed-type hypersensitivity assay to determine to which extent the prophylactic co-immunization prevents the development of an allergic reaction.
With respect to tolerogenic immunization, Balb/c mice were injected intramuscular (i.m.) on days 0 and 14 with 100 ug each of OVA323-339 and pVAX1-OVA, MT1 and pVAX1-MT1, or MT2 and pVAX1-MT2. C57BL/6 mice were similarly injected with P100 and D100, or P66 and D66.
With respect to the intradermal test and histology, antigen-sensitized C57BL/6 mice were challenged intradermally (i.d.) with 10 ug of FSA (Greer Laboratories) on the nonlesional lateral thorax skin. PBS is used as a sham control and histamine is used as a positive control. The diameter of the skin reaction was measured within 30 min after challenge using a calibrated micrometer. Skin samples were collected within 30 min of antigen challenge, fixed in 4% paraformaldehyde, embedded in paraffin, and sectioned. […]

splenic CD4+ T cells = test: In vitro restimulation of T cells from FSA1 sensitized mice; type: cell-based, C57BL/6 mice; settings: than P66
Method: Splenic CD4^+ T cells from flea antigen immunized C57BL/6 mice were restimulated with P100 or P66 (5 ug/ml) in culture. T cell proliferation was determined by a 3-(4,5-Dimethylthiazol-2-yl)-2,5-diphenyltetrazolium bromide (MTT, a yellow tetrazole)-based assay. Concanavalin A (1 ug/ml) and BSA (1 ug/ml) were used as positive and negative controls, respectively. *, p<0.05. Shown is one of three independent experiments with similar results.
Flea allergic dermatitis is an allergic reaction to flea allergen that is mediated by CD4^+ T effector cells. To the above findings to a disease model, two antigenic epitopes from the flea allergen FSA1 were chosen, namely P66 (amino acids 66-80) (SEQ ID NO:189) and P100 (amino acids 100-114) (SEQ ID NO:188). […] This prediction was confirmed by sensitizing C57BL/6 mice (I-Ab^+) with full-length FSA1 followed by an in vitro restimulation assay using one of the epitopes.
With respect to T cell proliferation, MTT-based and CF SE-based T cell proliferation assays were performed as described before.

MHC-II (I-Ad) = target: T1, MHC-II (I-Ad) (Mus musculus, UniProt P01921+P04228); test: Tetramer staining-based epitope competition assay; type: binding
T1 construct: purchased NIH Tetramer Core Facility
T1 sequence (P04228 24-218 limits assumed): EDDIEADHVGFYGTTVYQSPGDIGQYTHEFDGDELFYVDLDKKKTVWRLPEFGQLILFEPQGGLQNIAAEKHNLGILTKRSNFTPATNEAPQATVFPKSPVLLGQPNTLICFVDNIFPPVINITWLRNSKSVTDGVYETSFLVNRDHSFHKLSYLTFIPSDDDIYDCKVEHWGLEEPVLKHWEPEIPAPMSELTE
T1 sequence (P01921 28-226 limits assumed): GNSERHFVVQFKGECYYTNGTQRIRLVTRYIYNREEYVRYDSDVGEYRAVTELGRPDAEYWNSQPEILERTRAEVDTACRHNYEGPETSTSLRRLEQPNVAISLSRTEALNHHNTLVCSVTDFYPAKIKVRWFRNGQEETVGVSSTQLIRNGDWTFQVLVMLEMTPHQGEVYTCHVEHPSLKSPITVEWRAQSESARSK
Method: To further determine how antigenicity affects CD25^− iTreg induction, a set of mutated epitopes were generated from OVA323-339 (SEQ ID NO:187). Using a tetramer staining-based epitope competition assay, the affinity of each of the mutated epitopes for MHC-II was assessed. […] OVA323-339, MT1, and MT2 as probes for antigenicity studies were therefore selected.
With respect to the tetramer competition assay, PE-conjugated OVA323-339-loaded I-Ad tetramer (NIH Tetramer Core Facility) was competed with OVA323-339 or a mutant peptide by incubation of 2×10^5 DO11.10 T cells, the OVA323-339 tetramer, and a competing peptide together for 5 minutes. Five volumes of medium with 10% FCS were added to stop the competition. Cells were washed 3 times and immediately analyzed for PE-positive T cells by flow cytometer.

CD4+CD25− naive T cells = test: Foxp3-GFP induction in naive T cells with anti-CD3/anti-CD28 and cytokines; type: cell-based, Foxp3gfp mouse

## CN(C)c1cccc2c(S(=O)(=O)NCCCCCN)cccc12 [MDC, monodansylcadaverine]
JAWS II cells
  effect on CD40low phenotype: could prevent

## N=C(N)NC(=O)c1nc(Cl)c(N)nc1N [amiloride]
[1]; pcD-S2 plasmid with amiloride treatment
  expression of CD40, CD80 and CD86: higher levels of expression of CD40, CD80 and CD86
[1]; vs same cells without amiloride treatment
  expression of TNF and IFN-γ: higher levels of expression of TNF and IFN-γ
[2]; 1 mM amiloride 1 h, after 3 days culture
  GFP expression: significantly higher level of GFP
[2]; pre-treated with 1 mM amiloride for 1 h, within 2 hrs
  uptake of Cy5-labeled pEGFP plasmids: significantly taken up
JAWS II cells; amiloride (5 mM) for 10 min
  effect on CD40 expression: no effect
[3]; amiloride 10 μM
  percentage of Cy5-plasmid+ cells in lymph nodes (LN): increased
[3]; amiloride 100 μM
  percentage of Cy5-plasmid+ cells in lymph nodes (LN): peaked
[3]; amiloride 1 mM
  percentage of Cy5-plasmid+ cells in lymph nodes (LN): decreased
HBsAg
  levels of antibody against HBsAg: increased
[4]
  percentage of S208-215 specific triple positive CD8 T effectors: significantly increased

## CCCCC[C@@H](O)[C@H]1C(=O)O[C@H](C)[C@@H](O)/C=C/C=C/C=C/C=C/C=C(\C)[C@@H](O)C[C@H](O)C[C@H](O)C[C@H](O)C[C@H](O)C[C@H](O)C[C@@H]1O [filipin]
JAWS II cells
  relative effectiveness in preventing CD40low phenotype: more effective than MDC
  effect on CD40low phenotype: could prevent

## GPDWKVSKECKDPNN (Pulex irritans) [P100]
Flea allergic dermatitis
  CD25− iTreg induced: induced more
Splenic CD4+ T cells
  T cell proliferation: significantly more vigorous T cell proliferation

## ISQAVHAAHAEINEAGR (listed as Gallus gallus) [OVA323-339]
MHC-II (I-Ad)
  order of affinity for MHC-II: OVA323-339>MT1>MT2=MT3

## TGF-β1: titrated rhTGF-β1 (PeproTech)
CD4+CD25− naive T cells
  GFP (Foxp3) expression in CD25− T cells: up-regulated

B1: IL-10: rmIL10 (PeproTech) (protein, UniProt P18893 19-178, looked up)
Interleukin-10: SRGQYSREDNNCTHFPVGQSHMLLELRTAFSQVKTFFQTKDQLDNILLTDSLMQDFKGYLGCQALSEMIQFYLVEVMPQAEKHGPEIKEHLNSLGEKLKTLRMRLRRCHRFLPCENKSKAVEQVKSDFNKLQDQGVYKAMNEFDIFINCIEAYMMIKMKS
CD4+CD25− naive T cells
  GFP (Foxp3) expression in CD25− T cells: neither alone influenced the expression of Foxp3
